US20150150878A1, “Methods For Inhibiting Viruses By Targeting Cathepsin-L Cleavage Sites In The Viruses' Glycoproteins” (priority 2012, published 2015)

Assays:
Assay type in all cases: biochemical
Parameters in all cases: human cathepsin L purified from human liver (Sigma Aldrich); purchased Sigma Aldrich; host or cells: human liver (tissue-purified)
cathepsin L [1] = target: T1, cathepsin L (Homo sapiens, UniProt P07711)
cathepsin L [2] = target: T1, cathepsin L; remark: listed apart in the source
cathepsin L [3] = target: T1, cathepsin L; remark: listed apart in the source
cathepsin L [4] = target: T1, cathepsin L; remark: listed apart in the source
cathepsin L [5] = target: T1, cathepsin L; remark: listed apart in the source
Further: test concentration or dose not given here.

T1 sequence (P07711 114-333): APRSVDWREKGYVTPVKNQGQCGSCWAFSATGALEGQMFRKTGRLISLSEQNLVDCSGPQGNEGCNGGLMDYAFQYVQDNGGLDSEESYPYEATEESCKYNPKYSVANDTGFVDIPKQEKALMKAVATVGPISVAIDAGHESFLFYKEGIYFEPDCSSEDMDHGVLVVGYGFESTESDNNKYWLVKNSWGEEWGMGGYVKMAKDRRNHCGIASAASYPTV

Row | SMILES | Inhibition of cleavage of Ebola peptide by Cathepsin-L (cathepsin L [1]) | percentage inhibition against Ebola peptide (cathepsin L [1]) | Inhibition of cleavage of NPY peptide by Cathepsin-L (cathepsin L [2]) | percentage inhibition against human Pro-NPY peptide (cathepsin L [2]) | Inhibition of cleavage of Nipah peptide by Cathepsin-L (cathepsin L [3]) | percentage inhibition against Nipah peptide (cathepsin L [3]) | Inhibition of cleavage of Hendra peptide by Cathepsin-L (cathepsin L [4]) | percentage inhibition against Hendra peptide (cathepsin L [4]) | Inhibition of cleavage of SARS peptide by Cathepsin-L (cathepsin L [5]) | percentage inhibition against SARS peptide (cathepsin L [5])
1 | Cl.c1ccc(CNC2CCCc3c2[nH]c2ccc(-c4ccccc4)cc32)cc1 (stereo not drawn) [Compound 5219666] | 43% | 75.7% | 30% | 44.4% | 90.6% | 87.5% | 54.6% | 65.2% | 94.6% | 96.8%
2 | Cc1c(C#N)c2ccccc2n1CC(=O)NCc1ccc2c(c1)OCO2 [Compound 6874634] | 4.6% | 48% | 12.8% | 13.4% | 46% | 54.1% | 21.2% | 22.7% | 65.6% | 67.7%
3 | N#CSc1ccc(NC(=O)CSc2nc3ccccc3[nH]2)cc1 [Compound 6572698] | 15% | 34% | 1% | 14.7% | 40.7% | 41.1% | 21.6% | 24.8% | 66.1% | 44.8%
4 | CN(C)c1ccc(C(O)(c2ccc(N(C)C)cc2)c2ccc(N(C)C)cc2)cc1 [Compound 5152606] | 31.8% | – | 70.2% | – | 121.65% | – | 108.40% | – | 82.15% | –
5 | O=C(Nc1nc(-c2ccccc2)cs1)c1cc(-n2cnnc2)ccc1Cl [Compound 7931205] | −0.7% | 20% | 19.5% | 24.9% | 66.6% | 74.4% | 34.8% | 38.6% | 36.8% | 38.1%
6 | Cc1cc(C(=O)Nc2cccnc2)sc1-c1ccccc1 [Compound 7948346] | 25.2% | – | 10.2% | – | 49.3% | – | 17.7% | – | 72.4% | –
7 | O=C(Nc1cccnc1)c1cc2cc(Br)ccc2oc1=O [Compound 7947992] | 20% | – | 18.6% | – | 61.4% | – | 31.1% | – | 37.7% | –
8 | COc1ccc(OC)c(NC(=O)Nc2ccc(C(F)(F)F)cc2)c1 [Compound 7808526] | 9.6% | – | 1.2% | – | 40.8% | – | −4.08% | – | 69.2% | –
9 | O=C(Nc1ccc(F)c(Cl)c1)Nc1nnc(C(F)(F)F)s1 [Compound 7940158] | −12.3% | 49.1% | 4% | 14.9% | 34% | 54.7% | 26.2% | 19% | 55.8% | 64.6%
10 | Cc1c(Sc2nc3ccccc3[nH]2)c(=O)[nH]c2cc3c(cc12)OCO3 [Compound 7665576] | −3.8% | – | 2.0% | – | 63.7% | – | 37.9% | – | 60.7% | –
11 | Cc1ccc(-c2nc3ccccc3[nH]2)cc1NC(=O)c1ccc2c(c1)OCO2 [Compound 7793889] | −3.4% | – | 6.1% | – | 51.1% | – | −7.77% | – | 76.5% | –
12 | Cc1cnn(CCCNC(=O)c2cc(-c3cccnc3)nc3ccc(Cl)cc23)c1 [Compound 7923236] | 14% | 34.8% | 5.2% | 10.1% | 55.1% | 80.3% | 32.6% | 59% | 60.2% | 66.2%
13 | O=C(Nc1ccc(S(=O)(=O)N2CCOCC2)cc1)Nc1ccc(F)c(Cl)c1 [Compound 7798500] | −6.3% | 64.8% | 11.2% | 24.6% | 41.5% | 49.2% | 26.3% | 30.4% | 69.6% | 62.2%
14 | CNS(=O)(=O)c1ccc(NC(=O)Nc2ccc(F)c(Cl)c2)cc1 [Compound 7790059] | 1.8% | – | 6.4% | – | 44.1% | – | 12.4% | – | 49.3% | –
15 | Nc1ccc2[nH]c3ccccc3c2c1 [Compound 5172420] | 6.1% | – | 4.1% | – | 55.68% | – | 8.20% | – | 42.29% | –
16 | O=C(Nc1ccc2c(c1)OCO2)c1cc(-c2cccnc2)nc2ccc(Cl)cc12 [Compound 7924029] | 22% | 55% | 11% | 18.6% | 50.4% | 77.9% | 26.3% | 45.6% | 60% | 71.2%
